According to patent US20230021483A1, “[…] […] METHOD AND CLASSIFICATION OF PHARMACEUTICAL COMPONENTS BY USING TRANSCRIPTOMES” (National Institutes of Biomedical Innovation, Health and …, priority 2016, published 2023):
“Also recorded” adds a separate entry of the source.

Key:
[1] = tested on: preferentially upregulated genes in LV, SP, LN; experiment: Z-score-based differential gene expression analysis (adjuvant group- or adjuvant-associated genes, 40 module mapping, TargetMine annotation); assay type: in vivo, C57BL/6 mice
Summary of the method: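 Per-sample fold-change values converted to gene-wise z-scores within each organ's data set, then triplicate z-scores summed per adjuvant. Genes with summed score >3 taken as preferentially expressed; gene groups defined by combined per-adjuvant z-score thresholds (z>1 to z>3) specific to each organ.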

[2] = literature reports; cited from earlier work

Nc1nc2c(ncn2[C@@H]2O[C@@H]3COP(=O)(O)O[C@H]4[C@@H](O)[C@H](n5cnc6c(=O)[nH]c(N)nc65)O[C@@H]4COP(=O)(O)O[C@H]3[C@H]2O)c(=O)[nH]1 [cdiGMP, Cyclic diguanylate monophosphate]
Stat1 1450033_a_at (Group G1, Modules 20) ([1]; ID, LV, sample x3): 2.11
Stat1 1450034_at (Group G1, Modules 20) ([1]; ID, LV, sample x3): 2.07
Tdrd7 1426716_at (Group G1, Modules 20) ([1]; ID, LV, sample x3): 2.22
Tor1aip2 1418115_s_at (Group G1, Modules 20) ([1]; ID, LV, sample x3): 2.42
Tor1aip2 1418116_at (Group G1, Modules 20) ([1]; ID, LV, sample x3): 2.19
Tor1aip2 1435526_at (Group G1, Modules 20) ([1]; ID, LV, sample x3): 1.54
Trim12a 1437432_a_at (Group G1, Modules 20) ([1]; ID, LV, sample x3): 1.46
Uba7 1426970_a_at (Group G1, Modules 20) ([1]; ID, LV, sample x3): 1.41
interferon induction relative to adjuvants targeting the same receptor ([1]; LN, z-scores and 40 module mapping): strongest interferon inducer; also recorded: induced more interferon responses in vivo than the other sting ligands
preference, 1417252_at Ptgs2 ([1]; among cdiGMP/cGAMP/DMXAA, LN): cdiGMP
preference, 1417263_at Ptgs2 ([1]; among cdiGMP/cGAMP/DMXAA, LN): cdiGMP
preference, 1418424_at Tnfaip6 ([1]; among cdiGMP/cGAMP/DMXAA, LN): cdiGMP
preference, 1419132_at Tfr2 ([1]; among cdiGMP/cGAMP/DMXAA, LN): cdiGMP
preference, 1419508_at Ripk1 ([1]; among cdiGMP/cGAMP/DMXAA, LN): cdiGMP
preference, 1419534_at Olr1 ([1]; among cdiGMP/cGAMP/DMXAA, LN): cdiGMP
preference, 1419721_at Niacr1 ([1]; among cdiGMP/cGAMP/DMXAA, LN): cdiGMP
preference, 1421457_a_at Samsn1 ([1]; among cdiGMP/cGAMP/DMXAA, LN): cdiGMP
preference, 1421473_at Il1a ([1]; among cdiGMP/cGAMP/DMXAA, LN): cdiGMP
preference, 1421578_at Ccl4 ([1]; among cdiGMP/cGAMP/DMXAA, LN): cdiGMP
preference, 1421679_a_at Cdkn1a ([1]; among cdiGMP/cGAMP/DMXAA, LN): cdiGMP
preference, 1422054_a_at 5kil ([1]; among cdiGMP/cGAMP/DMXAA, LN): cdiGMP
preference, 1422305_at Ifnb1 ([1]; among cdiGMP/cGAMP/DMXAA, LN): cdiGMP
preference, 1423028_at Ifna2 ([1]; among cdiGMP/cGAMP/DMXAA, LN): cdiGMP
preference, 1424638_at Cdkn1a ([1]; among cdiGMP/cGAMP/DMXAA, LN): cdiGMP
preference, 1425687_at Cflar ([1]; among cdiGMP/cGAMP/DMXAA, LN): cdiGMP
preference, 1425837_a_at Ccrn4l ([1]; among cdiGMP/cGAMP/DMXAA, LN): cdiGMP
preference, 1427736_a_at Ccrl2 ([1]; among cdiGMP/cGAMP/DMXAA, LN): cdiGMP
preference, 1428027_at LOC100653389 ([1]; among cdiGMP/cGAMP/DMXAA, LN): cdiGMP
preference, 1428735_at Cd69 ([1]; among cdiGMP/cGAMP/DMXAA, LN): cdiGMP
preference, 1433508_at Klf6 ([1]; among cdiGMP/cGAMP/DMXAA, LN): cdiGMP
preference, 1434350_at Csrnp1 ([1]; among cdiGMP/cGAMP/DMXAA, LN): cdiGMP
preference, 1436387_at C330006P03Rik///Homer1 ([1]; among cdiGMP/cGAMP/DMXAA, LN): cdiGMP
preference, 1439349_at Sbno2 ([1]; among cdiGMP/cGAMP/DMXAA, LN): cdiGMP
preference, 1439680_at Tnfsf10 ([1]; among cdiGMP/cGAMP/DMXAA, LN): cdiGMP
preference, 1439981_at Tespa1 ([1]; among cdiGMP/cGAMP/DMXAA, LN): cdiGMP
preference, 1441843_s_at 5230400M03Rik ([1]; among cdiGMP/cGAMP/DMXAA, LN): cdiGMP
preference, 1442556_at --- ([1]; among cdiGMP/cGAMP/DMXAA, LN): cdiGMP
preference, 1443414_at C78513 ([1]; among cdiGMP/cGAMP/DMXAA, LN): cdiGMP
preference, 1444010_at Eif4e ([1]; among cdiGMP/cGAMP/DMXAA, LN): cdiGMP
preference, 1444598_at --- ([1]; among cdiGMP/cGAMP/DMXAA, LN): cdiGMP
preference, 1445534_at --- ([1]; among cdiGMP/cGAMP/DMXAA, LN): cdiGMP
preference, 1446245_at --- ([1]; among cdiGMP/cGAMP/DMXAA, LN): cdiGMP
preference, 1448325_at Ppp1r15a ([1]; among cdiGMP/cGAMP/DMXAA, LN): cdiGMP
preference, 1448724_at Cish ([1]; among cdiGMP/cGAMP/DMXAA, LN): cdiGMP
preference, 1449169_at Has2 ([1]; among cdiGMP/cGAMP/DMXAA, LN): cdiGMP
preference, 1449311_at Bach1 ([1]; among cdiGMP/cGAMP/DMXAA, LN): cdiGMP
preference, 1450297_at Il6 ([1]; among cdiGMP/cGAMP/DMXAA, LN): cdiGMP
preference, 1451340_at Arid5a ([1]; among cdiGMP/cGAMP/DMXAA, LN): cdiGMP
preference, 1453636_at Pcgf5 ([1]; among cdiGMP/cGAMP/DMXAA, LN): cdiGMP
preference, 1453851_a_at Gadd45g ([1]; among cdiGMP/cGAMP/DMXAA, LN): cdiGMP
preference, 1455197_at Rnd1 ([1]; among cdiGMP/cGAMP/DMXAA, LN): cdiGMP
preference, 1455899_x_at Socs3 ([1]; among cdiGMP/cGAMP/DMXAA, LN): cdiGMP
preference, 1457404_at Nfkbiz ([1]; among cdiGMP/cGAMP/DMXAA, LN): cdiGMP
preference, 1457888_at --- ([1]; among cdiGMP/cGAMP/DMXAA, LN): cdiGMP
preference, 1457944_at --- ([1]; among cdiGMP/cGAMP/DMXAA, LN): cdiGMP
preference, 1458376_at B930025B16Rik ([1]; among cdiGMP/cGAMP/DMXAA, LN): cdiGMP
preference, 1458589_at --- ([1]; among cdiGMP/cGAMP/DMXAA, LN): cdiGMP
preference, 1459144_at --- ([1]; among cdiGMP/cGAMP/DMXAA, LN): cdiGMP
adjuvant group-associated biological features ([1]; z-score selected genes, TargetMine and IPA upstream cytokine analyses): strongly associated with type I and type II interferon responses
Th response induced [2]: appears to induce Th1 responses
